Laboratory results from patent US20070027143A1, “Novel substituted 2,3-benzodiazepine derivatives” (priority 2003, published 2007).
Like-named read-outs stand apart in the source and are kept apart here.

What was measured:
CD1 mice [1] = assay: Anticonvulsant activity, 3-mercapto-propionic acid induced seizures; assay type: in vivo; settings: Mus musculus, read-out: 3-MPA ED50
Method: (§1) The anti-seizure activity of some of the compounds of the present invention was measured using the electroshock test (J. Pharmacol. Exp. Ther. 106:319 (1952)) and the results are shown in Table 3. The spasmolytic activity of the compounds of the present invention was investigated by using e.g., pentetrazole (J. Pharmacol. Exp. Ther. 108:168 (1953)), strychnine (J. Pharmacol. Exp. Ther. 129:75 (1960)), bemegrid, nicotine, bicuculline, 4-aminopyridine and mercapto-propionic acid for inducing the clonic-tonic seizures and lethality. The investigated compounds were administered orally in three doses using 10 male CD1 mice/dose, usually 60 min before the induction of seizures.

CD1 mice [2] = assay: Anticonvulsant activity, bemegride induced seizures; assay type: in vivo; settings: Mus musculus, read-out: Bemegride ED50
Method: as §1

CD1 mice [3] = assay: Anti-tremor effect, oxotremorine induced tremor; assay type: in vivo; settings: Mus musculus; po., Litchfield-Wilcoxon, limits in brackets; read-out: ED50, tremor induced by Oxotremorin 1 mg/kg ip.
Lewis rats [4] = assay: Autoimmune encephalomyelitis model, neurological (clinical) symptoms; assay type: in vivo; settings: Rattus norvegicus, po, 3.75 mg/kg p.o., female rats, read-out: Neurological symptoms (change compared to controls, %)
CD1 mice [5] = assay: Anticonvulsant activity, strychnine induced seizures; assay type: in vivo; settings: Mus musculus, read-out: Strychnine ED50
Method: as §1

CD1 mice [6] = assay: Muscle relaxant activity, rotarod test; assay type: in vivo; settings: Mus musculus, ip
CD1 mice [7] = assay: Muscle relaxant activity, inclined screen test; assay type: in vivo; settings: Mus musculus, ip
Lewis rats [8] = assay: Autoimmune encephalomyelitis model, neurological (clinical) symptoms; assay type: in vivo; settings: Rattus norvegicus, read-out: Neurological symptoms (change compared to controls, %); for change in vivo at 7.5 mg/kg: po, 7.5 mg/kg p.o.; for change in vivo at 30 mg/kg: ip, 30 mg/kg ip.
Method: The compounds were administered intraperitoneally twice a day for 8 days, starting on day 10 after immunization and with an observation period until symptoms were present. 5-15 animals were used in each group. Their weights were 160-180 g (Lewis rats, female) and 180-220 g (Lewis rats, male). The activity of the compounds was determined according to the symptom score values, and compared to those of the control group (see Table 6). Histopathological investigations were carried out on the brain stem, the spinal cord, and the sciatic nerve (Gijbels et al., J. Clin. Invest. 94:2177 (1994)) using 5-10 animal/group.
Compounds of the invention were further investigated in the autoimmune encephalomyelitis model in rats as outlined in this description before, with the variance that 10 animals were used in each group, of weights 140-160 g (Lewis rats, female).

CD1 mice [9] = assay: Anti-tremor effect, GYKI 20039 induced tremor; assay type: in vivo; settings: Mus musculus; po., Litchfield-Wilcoxon, limits in brackets; read-out: ED50, tremor induced by GYKI 20039 10 mg/kg ip.
AMPA receptors = assay: Inhibition of AMPA induced spreading depression in isolated chicken retina; assay type: cell-based; settings: AMPA (5 μM)
Method: (§2) In the first model the spreading depression caused by glutamate agonists (i.e., AMPA or kainate) was studied, while in the second one the transmembrane ion-current induced by the activation of the AMPA/kainate receptors was measured directly.
Inhibition of AMPA Induced “Spreading Depression” in Isolated Chicken Retina—
The AMPA antagonistic effect of the compounds of formula (I) or (II) was studied in the in vitro “spreading depression” model (Sheardown Brain Res. 607:189 (1993)). The AMPA antagonists prolong the latency of the development of the “spreading depression” caused by AMPA (5 μM).

AMPA/kainate receptors = assay: Inhibition of AMPA induced whole-cell current in acutely isolated cerebellar Purkinje cells (patch clamp); assay type: cell-based; settings: 5 μM AMPA, read-out: Inhibition of the ion-currents caused by 5 μM AMPA, IC50
Method: as §2
The activity of the compounds of the present invention was studied on acutely isolated cerebellar Purkinje cells by measuring the whole-cell current induced by 5 μM AMPA according for example to the method described by Bleakman et al (Neuropharmacology 12:1689 (1996)).

CD1 mice [10] = assay: Anticonvulsant activity, bicuculline induced seizures; assay type: in vivo; settings: Mus musculus, read-out: Bicuculline ED50
Method: as §1

CD1 mice [11] = assay: Anticonvulsant activity, pentetrazole induced seizures; assay type: in vivo; settings: Mus musculus, read-out: Pentetrazol ED50
Method: as §1

CD1 mice [12] = assay: Anticonvulsant activity, 4-aminopyridine induced seizures; assay type: in vivo; settings: Mus musculus, read-out: 4-AP ED50
Method: as §1

CD1 mice [13] = assay: Anticonvulsant activity, nicotine induced seizures; assay type: in vivo; settings: Mus musculus; po.
Method: as §1

CD1 mice [14] = assay: Anticonvulsant activity, maximal electroshock seizure (MES) test; assay type: in vivo; settings: Mus musculus
Method: as §1

BN rats [15] = assay: Bronchial hyperresponsiveness of ovalbumin sensitized, antigen challenged BN rats (tracheal rings, acetylcholine); assay type: in vivo; settings: 3.0 mg/kg po, 2 hours pre-challenge, mean ± SE
Description: (§3) Bronchial hyperresponsiveness (BHR) and airway eosinophilia (AEP) are characteristic features of bronchial asthma. BHR is typified by an exaggerated response to a wide variety of stimuli that can induce an increased resistance to airflow in the airways. AEP is a result of prolonged eosinophil infiltration, mast cell, and T cell activation in the airways. In actively (e.g., ovalbumin) immunized rats (e.g., Brown Norway [BN] strain), repeated sensitization followed by antigenic challenge results in lung eosinophilia and bronchial hyperresponsiveness to different spasmogens (e.g., acetylcholine). This is the most frequently employed model for studying potential anti-asthmatic effects of new chemical entities.
(§4) BN rats were actively immunized with allergen (ovalbumin). On day one, rats were sensitized with the subcutaneous administration of ovalbumin suspended in Al(OH)3 (2.5 μg ovalbumin +20 mg Al(OH)3 in 0.5 ml saline). Booster injections (same dose and same route) were given at day 14 and 21. Simultaneously at each occasion 0.25 ml of Bordatella pentussis vaccine was injected intraperitoneally. On day 28, animals were challenged by inhalation of the antigen (vaporized 1% OVA solution for 1 hour). Test compounds were administered orally 2 hours pre-challenge.
(§5) 48 hours following challenge, they were sacrificed by an overdose of urethane (4-5 ml of 15% urethane given i.p.), bronchoalveolar lavage fluid (BALF) was obtained, and tracheae dissected from the animals. Eosinophil cell count (cells/ml BALF) was determined manually using a selective stain for eosinophils and counting the cells in a Buerker chamber. BHR was determined using tracheal rings suspended in an organ bath. After an equilibration period of 30 minutes, cumulative concentration response curves to acetylcholine were determined. Maximal response of control (unchallenged, non-treated) tracheal rings is obtained at 10^−3 M acetylcholine. The height of this response is defined as 100%. All other contractions are expressed as a percentage and related to the control response.

CD1 mice [16] = assay: Anti-tremor effect, harmaline induced tremor; assay type: in vivo; settings: po., Litchfield-Wilcoxon, limits in brackets
[17] = test system: tumor cell types (colon adenocarcinoma, astrocytoma, breast carcinoma, lung carcinoma and neuroblastoma); settings: Rzeski et al.; cited from earlier work
BN rats [18] = assay: Airway eosinophilia of ovalbumin sensitized, antigen challenged BN rats (BALF eosinophil count); assay type: in vivo; settings: 3.0 mg/kg po, 2 hours pre-challenge, mean ± SE
Description: as §3, §4, §5

[19] = 0.5 h, po., 30′, read-out: MES 30′ ED50
[20] = 1 h, po., 60 min before induction, read-out: MES (MES 60′) ED50

CCCc1nnc(N2N=C(c3ccc(N)c(C)c3)c3cc4c(cc3C[C@H]2C)OCO4)s1 [Example 166, (R)-5-(4-Amino-3-methylphenyl)-8-methyl-7-(5-propyl-1,3,4-thiadiazol-2-yl)-8,9-dihydro-7H-1,3-dioxolo[4,5-h][2,3]benzodiazepine]
ED50 (CD1 mice [1]; po.): 9.92 mg/kg | ED50 (CD1 mice [2]; po.): 7.77 mg/kg | ED50 (CD1 mice [3]): 2.74 mg/kg | change in vivo at 3.75 mg/kg (Lewis rats [4]; 0-8 day): -6% | change in vivo at 3.75 mg/kg (Lewis rats [4]; 0-14 day): -9% | ED50 (CD1 mice [5]; po.): 7.29 mg/kg | ED50 (CD1 mice [6]): 0.86 mg/kg | ED50 (CD1 mice [7]): 3.27 mg/kg | change in vivo at 7.5 mg/kg (Lewis rats [8]; female rats, 0-8 day): -51% | change in vivo at 7.5 mg/kg (Lewis rats [8]; female rats, 0-14 day): -53% | ED50 (CD1 mice [9]): 4.54 mg/kg | IC50 (AMPA receptors): 201 nM | melting point: 150 to 154 °C | IC50 (AMPA/kainate receptors): 28 nM | ED50 (CD1 mice [10]; po.): 13.3 mg/kg | ED50 (CD1 mice [11]; po.): 9.18 mg/kg | ED50 (CD1 mice [12]; po.): 6.81 mg/kg | ED50 (CD1 mice [13]): 21.8 mg/kg | ED50 (CD1 mice [14]; [19]): 4.54 mg/kg | ED50 (CD1 mice [14]; [20]): 4.01 mg/kg

COCc1nnc(N2N=C(c3ccc(N)c(C)c3)c3cc4c(cc3C[C@H]2C)OCO4)s1 [Example 168, (R)-5-(4-Amino-3-methylphenyl)-8-methyl-7-(5-methoxymethyl-1,3,4-thiadiazol-2-yl)-8,9-dihydro-7H-1,3-dioxolo-[4,5-h][2,3]benzodiazepine]
ED50 (CD1 mice [1]; po.): 4.62 mg/kg | ED50 (CD1 mice [2]; po.): 6.7 mg/kg | ED50 (CD1 mice [3]): 3.29 mg/kg | change in vivo at 3.75 mg/kg (Lewis rats [4]; 0-8 day): -16% | change in vivo at 3.75 mg/kg (Lewis rats [4]; 0-14 day): -23% | ED50 (CD1 mice [5]; po.): 10 mg/kg | ED50 (CD1 mice [6]): 0.8 mg/kg | ED50 (CD1 mice [7]): 3.58 mg/kg | change in vivo at 7.5 mg/kg (Lewis rats [8]; female rats, 0-8 day): -55% | change in vivo at 7.5 mg/kg (Lewis rats [8]; female rats, 0-14 day): -56% | ED50 (CD1 mice [9]): 4.11 mg/kg | IC50 (AMPA receptors): 82 nM | melting point: 171 to 172 °C | IC50 (AMPA/kainate receptors): 11 nM | ED50 (CD1 mice [10]; po.): 10.6 mg/kg | ED50 (CD1 mice [11]; po.): 6.9 mg/kg | ED50 (CD1 mice [12]; po.): 4.6 mg/kg | ED50 (CD1 mice [13]): 17.7 mg/kg | ED50 (CD1 mice [14]; [19]): 2.21 mg/kg | ED50 (CD1 mice [14]; [20]): 4.49 mg/kg

Cc1nnc(N2N=C(c3ccc(N)c(Cl)c3)c3cc4c(cc3C[C@H]2C)OCO4)s1 [Example 182, (R)-5-(4-Amino-3-chlorophenyl)-8-methyl-7-(5-methyl-1,3,4-thiadiazol-2-yl)-8,9-dihydro-7H-1,3-dioxolo-[4,5-h][2,3]benzodiazepine]
ED50 (CD1 mice [1]; po.): 7.57 mg/kg | ED50 (CD1 mice [2]; po.): 7.94 mg/kg | ED50 (CD1 mice [3]): 2.66 mg/kg | ED50 (CD1 mice [5]; po.): 5.9 mg/kg | ED50 (CD1 mice [6]): 2.61 mg/kg | ED50 (CD1 mice [7]): 5.84 mg/kg | ED50 (CD1 mice [9]): 3.64 mg/kg | IC50 (AMPA receptors): 20 nM | melting point: 98 to 100 °C | IC50 (AMPA/kainate receptors): 31 nM | ED50 (CD1 mice [10]; po.): 8.44 mg/kg | ED50 (CD1 mice [11]; po.): 8.37 mg/kg | ED50 (CD1 mice [12]; po.): 5.44 mg/kg | ED50 (CD1 mice [13]): 24.2 mg/kg | ED50 (CD1 mice [14]; [19]): 5.08 mg/kg | ED50 (CD1 mice [14]; [20]): 6.17 mg/kg

CC1=NN=C(c2ccc(N)cc2)c2cc3c(cc2C1)OCO3 [GYKI 52466, 5-(4-aminophenyl)-8-methyl-9H-1,3-dioxolo[4,5-h][2,3]benzodiazepine, reference compound]
ED50 (CD1 mice [1]; po): 47 mg/kg | ED50 (CD1 mice [2]; po): 71.9 mg/kg | ED50 (CD1 mice [3]): 20.5 mg/kg | ED50 (CD1 mice [5]; po): 86.7 mg/kg | ED50 (CD1 mice [6]): 25.1 mg/kg | ED50 (CD1 mice [7]): 47.1 mg/kg | change in vivo at 30 mg/kg (Lewis rats [8]; female rats, 0-8 day): -45% | change in vivo at 30 mg/kg (Lewis rats [8]; female rats, 0-14 day): -4% | change in vivo at 30 mg/kg (Lewis rats [8]; male rats, 0-8 day): -1% | change in vivo at 30 mg/kg (Lewis rats [8]; male rats, 0-14 day): -1% | ED50 (CD1 mice [9]): 37.1 mg/kg | IC50 (AMPA receptors): 9500 nM | MAX: relative contraction compared to the control at a maximal Ach concentration (BN rats [15]): 135 ± 105% | ED50, tremor induced by Harmaline 40 mg/kg ip. (CD1 mice [16]): 38.5(25.7-57.9) mg/kg po. | IC50 (AMPA/kainate receptors): 8800 nM | Growth of selected tumor cell types [17]: inhibit growth | ED50 (CD1 mice [10]; po): 35 mg/kg | ED50 (CD1 mice [11]; po): 120 mg/kg | BALF eosinophil number (BN rats [18]): 0.91 ± 0.13 ×10^6/ml | ED50 (CD1 mice [12]; po): 43 mg/kg | ED50 (CD1 mice [13]): 71.8 mg/kg | ED50 (CD1 mice [14]; po, 0.5 h, read-out: MES 30′ ED50): 21.9 mg/kg | ED50 (CD1 mice [14]; po, 1 h, read-out: MES (MES 60′) ED50): 37.4 mg/kg
